This is an account of results in patent US20040242550A1, “Means and method for hormonal contraception” (priority 2001, published 2004).

The test in a line: conversion factors for progestogens: amount equivalent to a given amount of levonorgestrel. Particulars: for equivalent to 30 μg levonorgestrel / equivalent to 750 μg levonorgestrel: estimated amount of progestogen; for Conversion factor: relative to levonorgestrel, for guidance, estimate. The source says:
In order to determine for a specific biogenic estrogen or synthetic estrogen the amounts that are equivalent to a cited amount of ethinyl estradiol or 17beta-estradiol, the method described by Allen and Doisy may suitably be used (Allen A., Doisy E. A., “An ovarian hormone. Preliminary report on its localization, extraction and partial purification, and action in test animals. JAMA (1923), 81, 819-821). Similarly, in order to determine for a given progestogen the amount equivalent to cited amount of levonorgestrel the method originally described by McPhail can be used (Mc Phail M. K. “The assay of progestin” J Physiol (1934), 83, 145-156). A more recent description of this method can be found in an article written by Overbeek G. A., de Visser J. “A new substance with progestational activity”, Acta Endocrinol (1956), 22, 318-329. It is noted that the aforementioned methods will provide useful indications about the anticipated estrogen potency or progestogen potency of a particular hormone. However, to accurately determine the equivalent amounts that are referred to above, it is advisable to additionally conduct in vivo studies in human females.
For guidance the table below provides the conversion factors for a number of progestogens that may suitably be used in the method of the invention. These conversion factors may be used to calculate, for each progestogen mentioned in the table, an estimate of the amount of said progestogen which is equivalent to a given amount of levonorgestrel.

As to `C[C@]12CCC(=O)C=C1[C@@H]1C[C@@H]1[C@H]1[C@@H]3[C@@H]4C[C@@H]4[C@@]4(CCC(=O)O4)[C@@]3(C)CC[C@@H]12` [drospirenone], the “equivalent to 30 μg levonorgestrel” value is 600 µg, the “equivalent to 750 μg levonorgestrel” value is recorded as 15 mg and the Conversion factor was 20.
On to `C#C[C@]1(OC(C)=O)CC[C@H]2[C@@H]3CCC4=CC(=NO)CC[C@@H]4[C@H]3CC[C@@]21CC` (mixture of isomers) [norgestimate], for which the “equivalent to 30 μg levonorgestrel” value is 51 µg, the “equivalent to 750 μg levonorgestrel” value is 1.275 mg and the Conversion factor is on record as 1.7.
On the same counts, the results for `CC(=O)[C@H]1CC[C@H]2[C@@H]3C=CC4=CC(=O)CC[C@@]4(C)[C@@H]3CC[C@]12C` [dydrogesterone] are 4000 µg, 100 mg and 133.
The like results for `C#C[C@]1(O)CC[C@H]2[C@@H]3CCC4=CC(=O)CC[C@@H]4[C@H]3CC[C@@]21C` [norethisterone] were, in that order, 210 µg, 5.25 mg and 7.
